Measurements taken from article PMC12794516, “Modulation of endothelial-to-mesenchymal transition via NRP-1 targeting with melittin attenuates pulmonary fibrosis” (Materials Today Bio, 2025).

Key:
[1] = tested on: HUVECs; assay: Cell viability assay (MTS); assay type: cell-based, Human; conditions: 24 h incubation, n = 3
Description: Cell viability was assessed using the MTS assay (Promega). Briefly, HUVECs were seeded at 5000 cells/well in triplicate in a 96-well plate. When the density of the cells reached approximately 80 %, MLT at different concentrations was added, and the cells were incubated for 24 h. Then, 20 μL of MTS reagent was added to each well, followed by incubated for 2 h. Absorbance was measured at 490 nm using a microplate reader.

[2] = In vivo and ex vivo fluorescence imaging (biodistribution, blood and lung retention); parameters: species or system C57BL/6 mice
Description: To evaluate the biodistribution and lung targeting of MLT and M-pLNP, two fluorescence imaging experiments were performed in a BLM-induced PF model. In the first study, normal and PF mice (n = 6) received a single intraperitoneal injection of MLT-RhB (or PBS control), and were euthanized 30 min later for collection of major organs. In the second study, PF mice were randomly divided into two groups receiving either MLT-RhB or M-pLNP-RhB. Comprehensive in vivo whole-body fluorescence imaging was performed at multiple time points (10 min, 30 min, 1 h, 3 h and 6 h) after administration. Additionally, ex vivo analysis was conducted by collecting blood samples and lung tissues at […] critical time points (10 min, 30 min, 1 h, 6 h, 12 h, and 24 h). All imaging was performed using an IVIS Lumina XRMS system, in vivo and ex vivo samples were imaged through RhB channels (Ex/Em = 545/570 nm). Mean fluorescence intensity was used to quantitatively assess tissue distribution and lung accumulation.

[3] = tested on: NRP-1 receptor on HUVECs; assay: In vitro cell targeting (uptake of MLT-RhB, flow cytometry and confocal imaging); assay type: cell-based, Human; conditions: flow cytometry; HUVECs with TGF-β1 10 ng/mL 48 h; MLT-RhB 2 μg/mL 1 h; n = 3
Description: To assess the NRP-1 receptor-targeting ability of MLT, HUVECs were seeded into 96-well plates at a density of 1.5 × 10^4 cells per well and cultured overnight in complete growth medium. TGF-β1 (10 ng/mL) was added to all groups except the control group and incubated for 48 h. Subsequently, each group was treated with the RPARPAR peptide (0.5 mM) for 1 h, followed by the addition of MLT-RhB (2 μg/mL) for an additional hour. For flow cytometry, cells were processed and analyzed using a flow cytometer (Dakewe Biotech Co., Ltd., China), and data were analyzed with FlowJo software (FlowJo, Ashland, OR, USA). For immunofluorescence, following the same treatment protocol, cells were fixed with 4 % paraformaldehyde and immunostained. NRP-1 was detected using an anti-NRP-1 primary antibody and an Alexa Fluor® 647-conjugated secondary antibody. Nuclei were stained with DAPI. Imaging was performed using a SpinSR10 spinning disk confocal super-resolution microscope (Olympus, Japan) with the following excitation wavelengths: 405 nm for DAPI; 535 nm for RhB; and 640 nm for NRP-1.

[4] = RhB-labeled, single i.p. injection, PF mice, ex vivo lung fluorescence, n = 3

Compound: CC[C@H](C)[C@H](NC(=O)CN)C(=O)NCC(=O)N[C@@H](C)C(=O)N[C@H](C(=O)N[C@@H](CC(C)C)C(=O)N[C@@H](CCCCN)C(=O)N[C@H](C(=O)N[C@@H](CC(C)C)C(=O)N[C@H](C(=O)N[C@H](C(=O)NCC(=O)N[C@@H](CC(C)C)C(=O)N1CCC[C@H]1C(=O)N[C@@H](C)C(=O)N[C@@H](CC(C)C)C(=O)N[C@H](C(=O)N[C@@H](CO)C(=O)N[C@@H](Cc1c[nH]c2ccccc12)C(=O)N[C@H](C(=O)N[C@@H](CCCCN)C(=O)N[C@@H](CCCNC(=N)N)C(=O)N[C@@H](CCCCN)C(=O)N[C@@H](CCCNC(=N)N)C(=O)N[C@@H](CCC(N)=O)C(=O)N[C@@H](CCC(N)=O)C(N)=O)[C@@H](C)CC)[C@@H](C)CC)[C@@H](C)O)[C@@H](C)O)C(C)C)C(C)C [MLT, Melittin]
- concentration at which MLT started to induce cellular toxicity [1]: 8000 ng/mL
- time within which the blood fluorescence signal was nearly undetectable ([2]; RhB-labeled, single i.p. injection, 15 nmol RhB equivalent per mouse, PF mice, blood samples): ≤ 6 h
- time within which the peritoneal fluorescence signal was substantially weakened ([2]; RhB-labeled, single i.p. injection, 15 nmol RhB equivalent per mouse, PF mice, in vivo imaging): 30 min
- time by which lung fluorescence reached near-background levels (clearance) [2, 4]: ≤ 6 h
- time of peak lung accumulation [2, 4]: 30 min

Compound: MLT-RhB: Rhodamine B-labeled MLT
- mean fluorescence intensity (MFI) of RhB in TGF-β1 group vs control group (uptake) [3]: significantly higher than that in the control group
- lung radiant efficiency, PF lungs vs control ([2]; MLT-RhB single intraperitoneal injection, ex vivo imaging 30 min post-injection, PF vs normal mice, n = 3): ~1.5 fold
